Results reported in PMC6259456, “Inhibitory Effects of Phylligenin and Quebrachitol Isolated from Mitrephora vulpina on Platelet Activating Factor Receptor Binding and Platelet Aggregation” (Molecules, 2010).
Read-outs that look alike come from different tables or passages of the source.

Target: T1, platelet activating factor (PAF) receptor (Oryctolagus cuniculus, UniProt G1TEI7)
T1 construct: gene PTAFR; native receptor on washed rabbit platelets
Test: 3H-PAF radioligand displacement on washed rabbit platelets
Assay type: cell-based

T1 sequence (G1TEI7 1-342): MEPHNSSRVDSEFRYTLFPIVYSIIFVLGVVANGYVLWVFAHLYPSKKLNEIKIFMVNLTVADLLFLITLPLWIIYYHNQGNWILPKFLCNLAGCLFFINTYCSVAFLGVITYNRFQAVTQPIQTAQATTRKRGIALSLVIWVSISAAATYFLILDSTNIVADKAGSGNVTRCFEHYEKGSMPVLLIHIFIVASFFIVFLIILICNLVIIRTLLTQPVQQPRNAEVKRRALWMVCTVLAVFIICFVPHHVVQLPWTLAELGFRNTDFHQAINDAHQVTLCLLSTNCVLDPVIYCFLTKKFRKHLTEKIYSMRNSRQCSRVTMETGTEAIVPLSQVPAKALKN

| Structure (SMILES) | IC50 (read-out: IC50) [µM] | IC50 [µM] |
| --- | --- | --- |
| CO[C@H]1[C@H](O)[C@@H](O)[C@H](O)[C@H](O)[C@H]1O [quebrachitol, 2-O-methyl-L-chiro-inositol] | 42.2 | – |
| C[C@@H]1CC[C@H]2C(C)(C)[C@H]3C[C@@]12CC[C@@]3(C)O [cedrol, reference compound] | 10.6 | – |
| COc1cc([C@H]2OC[C@H]3[C@@H]2CO[C@H]3c2ccc(OC)c(OC)c2)ccc1O [phylligenin] | – | 13.1 |
